Measured values as given in patent US4760136A, “Chartreusin derivatives and salts thereof” (Ishihara Sangyo Kaisha, Ltd., priority 1984, dated 1988).
Structures can show the parent of a compound that is named as a salt.

Columns and labels:
Type in all cases: in vivo
P-388 leukemia cells = assay: Antitumor activity: P-388 leukemia cells inoculated intraperitoneally, drug administered intravenously, BDF1 mice; settings: BDF1 mice, P-388 i.p.; for response vs control in vivo at 80 mg/kg: dose f: 80 mg/kg × 3, i.v. on days 1, 5 and 9; for response vs control in vivo at 20 mg/kg: dose b: 20 mg/kg × 3, i.v. on days 1, 5 and 9; for T/C (%) of MST / response vs control in vivo at 40 mg/kg: dose c: 40 mg/kg × 3, i.v. on days 1, 5 and 9
Method in brief: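 Drug dosing was intravenous on the first, fifth and ninth days after intraperitoneal inoculation of P-388 leukemia cells (1×10^6 per mouse) into BDF1 mice. Vehicles were physiological saline alone, or saline with small amounts of sodium carboxymethyl cellulose or Tween-80.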

ddY mice = assay: Acute toxicity, intravenous (once), ddY mice; settings: formulated per Preparation Example
Excerpt: (§1) In Table 7 are shown acute toxicity values (LD50, mg/kg) in ddY mice in the case of intravenously administering (once) each of the compounds of this invention in the form of preparations shown in the Preparation Examples shown in Table 7.

[1] = Acute toxicity, intravenous (once), ddY mice; settings: mouse, in vivo, iv, formulated per Preparation Example
Excerpt: as §1

[2] = Mus musculus, P388, iv, read-out: T/C (%) of MST

Compound | response vs control in vivo at 80 mg/kg (P-388 leukemia cells; [2]) [%] | LD50 (ddY mice) [mg/kg] | response vs control in vivo at 40 mg/kg (P-388 leukemia cells; [2]) [%] | LD50 [1] [mg/kg] | further results
CCCC(=O)Oc1c2cccc(OC3OC(C)C4OC(c5ccccc5)OC4C3OC3OC(C)C(O)C(OC)C3O)c2c2oc(=O)c3c(C)ccc4oc(=O)c1c2c43 (centres unmarked) [compound 212, 6-O-(n-butyryl)-3',4'-O-benzylidene-chartreusin] | 153 | ≥ 80 | – | – | –
COC1C(O)C(C)OC(OC2C(Oc3cccc4c(OC(=O)CN(C)C(=O)C(F)(F)F)c5c(=O)oc6ccc(C)c7c(=O)oc(c34)c5c67)OC(C)C3OC(c4ccccc4)OC32)C1O (centres unmarked) [compound 67] | 188 | ≥ 60 | – | – | –
COC1C(O)C(C)OC(OC2C(Oc3cccc4c(OC(=O)CCNC(=O)C(F)(F)F)c5c(=O)oc6ccc(C)c7c(=O)oc(c34)c5c67)OC(C)C3OC(c4ccccc4)OC32)C1O (stereo not drawn) [Compound No. 28, 6-O-(N-Trifluoroacetyl-β-Alanyl)-3',4'-O-Benzylidene-Chartreusin] | 193 | ≥ 120 | – | – | response vs control in vivo at 120 mg/kg (P-388 leukemia cells; Mus musculus, P388, iv, dose h: 120 mg/kg × 3, i.v. on days 1, 5 and 9, read-out: T/C (%) of MST): 227%
C=CCCC(=O)Oc1c2cccc(O[C@@H]3O[C@H](C)[C@@H]4OC(c5ccccc5)O[C@@H]4[C@H]3O[C@H]3O[C@H](C)[C@H](O)[C@H](OC)[C@H]3O)c2c2oc(=O)c3c(C)ccc4oc(=O)c1c2c43 (some centres unmarked) [compound 213] | 160 | ≥ 80 | – | – | –
COC1C(O)C(C)OC(OC2C(Oc3cccc4c(OC(=O)C(C)CNC(=O)C(F)(F)F)c5c(=O)oc6ccc(C)c7c(=O)oc(c34)c5c67)OC(C)C3OC(c4cccc(F)c4)OC32)C1O (stereo not drawn) [Compound No. 37, 6-O-(N-trifluoroacetyl-β-amino-isobutyryl)-3',4'-O-(m-fluorobenzylidene)-chartreusin] | – | ≥ 30 | – | – | response vs control in vivo at 10 mg/kg (P-388 leukemia cells; Mus musculus, P388, iv, dose a: 10 mg/kg × 3, i.v. on days 1, 5 and 9, read-out: T/C (%) of MST): 146%
COC1C(O)C(C)OC(OC2C(Oc3cccc4c(OC(=O)CCNC=O)c5c(=O)oc6ccc(C)c7c(=O)oc(c34)c5c67)OC(C)C3OC(c4ccsc4)OC32)C1O (centres unmarked) [compound 89] | 173 | ≥ 80 | – | – | –
COC1C(O)C(C)OC(OC2C(Oc3cccc4c(OC(=O)C5CC5)c5c(=O)oc6ccc(C)c7c(=O)oc(c34)c5c67)OC(C)C3OC(c4ccccc4)OC32)C1O (centres unmarked) [compound 230] | 144 | ≥ 80 | – | – | –
COC1C(O)C(C)OC(OC2C(Oc3cccc4c(OC(=O)CCN)c5c(=O)oc6ccc(C)c7c(=O)oc(c34)c5c67)OC(C)C3OC(c4ccccc4)OC32)C1O (centres unmarked) [Compound No. 17] | – | ≥ 40 | – | – | response vs control in vivo at 20 mg/kg (P-388 leukemia cells; [2]): 206%; T/C (%) of MST (P-388 leukemia cells): 241%
COC1C(O)C(C)OC(OC2C(Oc3cccc4c(OC(=O)CCNC(=O)c5ccccc5)c5c(=O)oc6ccc(C)c7c(=O)oc(c34)c5c67)OC(C)C3OC(c4ccccc4)OC32)C1O (centres unmarked) [compound 65] | 175 | ≥ 60 | – | – | –
COC1C(O)C(C)OC(OC2C(Oc3cccc4c(OC(=O)CCNC(C)=O)c5c(=O)oc6ccc(C)c7c(=O)oc(c34)c5c67)OC(C)C3OC(c4ccccc4)OC32)C1O (centres unmarked) [Compound No. 29] | 221 | ≥ 80 | 173 | – | –
COC1C(O)C(C)OC(OC2C(Oc3cccc4c(OC(=O)CC(C)C)c5c(=O)oc6ccc(C)c7c(=O)oc(c34)c5c67)OC(C)C3OC(c4ccccc4)OC32)C1O (centres unmarked) [compound 227] | 143 | ≥ 80 | – | – | –
COC1C(O)C(C)OC(OC2C(Oc3cccc4c(OC(=O)CCN)c5c(=O)oc6ccc(C)c7c(=O)oc(c34)c5c67)OC(C)C3OC(c4ccccc4)OC32)C1O (stereo not drawn) [compound 80, 6-O-(β-alanyl)-3',4'-O-benzylidene-chartreusin hydrochloride] | 184 | – | – | – | T/C (%) of MST (P-388 leukemia cells; hydrochloride): 139%; LD50 (ddY mice; hydrochloride): ≥ 80 mg/kg
COC1C(O)C(C)OC(OC2C(Oc3cccc4c(OC(=O)CCCNC(=O)C(F)(F)F)c5c(=O)oc6ccc(C)c7c(=O)oc(c34)c5c67)OC(C)C3OC(c4ccc(F)cc4)OC32)C1O (centres unmarked) [Compound No. 57] | 208 | ≥ 80 | 162 | – | –
COC1C(O)C(C)OC(OC2C(Oc3cccc4c(OC(=O)CCNC=O)c5c(=O)oc6ccc(C)c7c(=O)oc(c34)c5c67)OC(C)C3OC(c4ccccc4)OC32)C1O (centres unmarked) [Compound No. 40] | 205 | ≥ 100 | – | – | –
COC1C(O)C(C)OC(OC2C(Oc3cccc4c(OC(=O)CCNC(=O)c5ccccc5)c5c(=O)oc6ccc(C)c7c(=O)oc(c34)c5c67)OC(C)C3OC(c4ccc(Br)cc4)OC32)C1O (centres unmarked) [compound 124] | 151 | ≥ 80 | – | – | –
COC1C(O)C(C)OC(OC2C(Oc3cccc4c(OC(=O)CCCCCNC(=O)OCc5ccccc5)c5c(=O)oc6ccc(C)c7c(=O)oc(c34)c5c67)OC(C)C3OC(c4ccccc4)OC32)C1O (centres unmarked) [compound 110] | – | ≥ 60 | 154 | – | –
COC1C(O)C(C)OC(OC2C(Oc3cccc4c(OC(=O)C(C)CNC(=O)C(F)(F)F)c5c(=O)oc6ccc(C)c7c(=O)oc(c34)c5c67)OC(C)C3OC(c4cccc(F)c4)OC32)C1O (centres unmarked) [compound 68] | 210 | ≥ 80 | 148 | – | –
COC1C(O)C(C)OC(OC2C(Oc3cccc4c(OC(=O)CCNC(=O)C(F)(F)F)c5c(=O)oc6ccc(C)c7c(=O)oc(c34)c5c67)OC(C)C3OC(c4ccccc4)OC32)C1O (centres unmarked) [Compound No. 41] | – | ≥ 100 | – | – | T/C (%) of MST (P-388 leukemia cells): 157%
COC1C(O)C(C)OC(OC2C(Oc3cccc4c(OC(=O)CCNC=O)c5c(=O)oc6ccc(C)c7c(=O)oc(c34)c5c67)OC(C)C3OC(c4ccc(Cl)cc4Cl)OC32)C1O (centres unmarked) [compound 93] | 165 | – | – | ≥ 80 | –
CO[C@H]1[C@@H](O)[C@@H](C)O[C@H](O[C@H]2[C@H](Oc3cccc4c(OC(=O)c5ccccc5Cl)c5c(=O)oc6ccc(C)c7c(=O)oc(c34)c5c67)O[C@H](C)[C@@H]3OC(c4cccc([N+](=O)[O-])c4)O[C@@H]32)[C@@H]1O (some centres unmarked) [Compound No. 189] | 214 | – | 146 | ≥ 80 | –
COC1C(O)C(C)OC(OC2C(Oc3cccc4c(OC(=O)CC(C)C)c5c(=O)oc6ccc(C)c7c(=O)oc(c34)c5c67)OC(C)C3OC(c4ccc(F)cc4)OC32)C1O (centres unmarked) [Compound No. 159] | 216 | – | 171 | ≥ 40 | –
COC1C(O)C(C)OC(OC2C(Oc3cccc4c(OC(=O)CCNC(=O)C(F)(F)F)c5c(=O)oc6ccc(C)c7c(=O)oc(c34)c5c67)OC(C)C3OC(C)(C)OC32)C1O (stereo not drawn) [Compound No. 49, 6-O-(N-Trifluoroacetyl-β-Alanyl)-3',4'-O-Isopropylidene-Chartreusin] | 207 | – | – | ≥ 150 | –
COC1C(O)C(C)OC(OC2C(Oc3cccc4c(OC(=O)CCCNC(=O)OCc5ccccc5)c5c(=O)oc6ccc(C)c7c(=O)oc(c34)c5c67)OC(C)C3OC(c4ccccc4)OC32)C1O (centres unmarked) [compound 76] | – | – | 184 | ≥ 40 | response vs control in vivo at 20 mg/kg (P-388 leukemia cells; [2]): 135%
COC1C(O)C(C)OC(OC2C(Oc3cccc4c(OC(=O)C(C)CN(C)C)c5c(=O)oc6ccc(C)c7c(=O)oc(c34)c5c67)OC(C)C3OC(c4ccccc4)OC32)C1O (stereo not drawn) [Compound No. 1, 6-O-(N,N-Dimethyl-β-Amino-Isobutyryl)-3',4'-O-Benzylidene-ChartreusinHydrochloride] | – | – | 214 | ≥ 40 | response vs control in vivo at 20 mg/kg (P-388 leukemia cells; [2]): 138%
COC(=O)c1ccc(C(=O)Oc2c3cccc(O[C@@H]4O[C@H](C)[C@@H]5OC(C)(C)O[C@@H]5[C@H]4O[C@H]4O[C@H](C)[C@H](O)[C@H](OC)[C@H]4O)c3c3oc(=O)c4c(C)ccc5oc(=O)c2c3c54)cc1 [compound 207] | 192 | – | 130 | ≥ 80 | –
CCOCCC(=O)Oc1c2cccc(OC3OC(C)C4OC(C)(C)OC4C3OC3OC(C)C(O)C(OC)C3O)c2c2oc(=O)c3c(C)ccc4oc(=O)c1c2c43 (centres unmarked) [Compound No. 176] | 208 | – | 155 | ≥ 80 | –
COC1C(O)C(C)OC(OC2C(Oc3cccc4c(OC(=O)COC(=O)c5ccccc5)c5c(=O)oc6ccc(C)c7c(=O)oc(c34)c5c67)OC(C)C3OC(c4ccccc4)OC32)C1O (centres unmarked) [Compound No. 167] | – | – | – | ≥ 40 | response vs control in vivo at 20 mg/kg (P-388 leukemia cells; [2]): 198%
COC1C(O)C(C)OC(OC2C(Oc3cccc4c(OC(=O)CCNC(=O)OCc5ccccc5)c5c(=O)oc6ccc(C)c7c(=O)oc(c34)c5c67)OC(C)C3OC(C)(C)OC32)C1O (centres unmarked) [compound 107] | 185 | – | 139 | ≥ 100 | –
CCCC(=O)Oc1c2cccc(OC3OC(C)C4OC(c5ccccc5)OC4C3OC3OC(C)C(O)C(OC)C3O)c2c2oc(=O)c3c(C)ccc4oc(=O)c1c2c43 (centres unmarked) [Compound No. 191, 6-O-(n-Butyryl)-3',4'-O-Benzylidene-Chartreusin] | – | – | – | ≥ 40 | response vs control in vivo at 20 mg/kg (P-388 leukemia cells; [2]): 155%
